Results from US9790230B2 (Hoffmann-La Roche Inc., priority 2015, dated 2017).
pKi: −log10 of the molar value.

Columns and labels:
rat TAAR1 = rat TAAR1 (Rattus norvegicus (Rat), UniProt Q923Y9); experiment: Radioligand binding assay on rat TAAR1;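 note: membranes from HEK293 cells stably transfected with rat TAAR1, tritiated TAAR1 radioligand, 1 h incubation at 4 °C, nonspecific binding determined with excess unlabeled ligand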
mouse TAAR1 = mouse TAAR1 (Mus musculus (Mouse), UniProt Q923Y8); experiment: Radioligand binding assay on mouse TAAR1
Chain of mouse TAAR1 (Q923Y8 whole entry): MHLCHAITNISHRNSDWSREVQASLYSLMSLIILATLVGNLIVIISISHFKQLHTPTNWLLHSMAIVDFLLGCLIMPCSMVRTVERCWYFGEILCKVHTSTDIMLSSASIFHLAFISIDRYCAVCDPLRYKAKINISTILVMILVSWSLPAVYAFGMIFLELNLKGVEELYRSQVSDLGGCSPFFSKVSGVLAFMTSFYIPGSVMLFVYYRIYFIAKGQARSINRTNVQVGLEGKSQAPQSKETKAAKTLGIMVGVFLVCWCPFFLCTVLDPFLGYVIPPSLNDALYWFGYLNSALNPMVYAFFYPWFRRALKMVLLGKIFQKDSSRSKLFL

Chain of rat TAAR1 (Q923Y9 whole entry): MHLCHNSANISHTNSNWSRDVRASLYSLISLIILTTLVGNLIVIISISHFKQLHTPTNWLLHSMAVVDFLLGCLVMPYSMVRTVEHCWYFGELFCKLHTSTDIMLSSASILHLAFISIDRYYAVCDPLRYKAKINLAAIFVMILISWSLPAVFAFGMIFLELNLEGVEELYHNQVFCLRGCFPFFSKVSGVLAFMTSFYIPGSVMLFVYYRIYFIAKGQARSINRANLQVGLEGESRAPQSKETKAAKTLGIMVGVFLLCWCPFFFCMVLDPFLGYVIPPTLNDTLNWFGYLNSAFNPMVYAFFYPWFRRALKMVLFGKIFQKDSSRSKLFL

Structure (SMILES) | pKi (rat TAAR1) | pKi (mouse TAAR1)
O=C(Nc1cccc([C@@H]2O[C@H]3CN[C@@H]2C3)c1)c1cccc(Cl)c1 [Example 1, 3-Chloro-N-[3-[(1R,3S,4R)-2-oxa-5-azabicyclo[2.2.1]heptan-3-yl]phenyl]benzamide] | 6.88 | 5.52
O=C(Nc1cccc([C@@H]2O[C@H]3CN[C@@H]2C3)c1)c1ccc(Cl)cc1 [Example 2, 4-Chloro-N-[3-[(1R,3S,4R)-2-oxa-5-azabicyclo[2.2.1]heptan-3-yl]phenyl]benzamide] | 7.10 | 5.60
O=C(Nc1ccc(C(F)(F)F)cc1)Nc1cccc([C@@H]2O[C@H]3CN[C@@H]2C3)c1 [Example 3, 1-[3-[(1R,3S,4R)-2-Oxa-5-azabicyclo[2.2.1]heptan-3-yl]phenyl]-3-[4-(trifluoromethyl)phenyl]urea] | 8.54 | 6.01
O=C(Nc1ccc(Cl)cc1)Nc1cccc([C@@H]2O[C@H]3CN[C@@H]2C3)c1 [Example 4, 1-(4-Chlorophenyl)-3-[3-[(1R,3S,4R)-2-oxa-5-azabicyclo[2.2.1]heptan-3-yl]phenyl]urea] | 7.99 | 5.89
O=C(Nc1cccc(Cl)c1)Nc1cccc([C@@H]2O[C@H]3CN[C@@H]2C3)c1 [Example 5, 1-(3-Chlorophenyl)-3-[3-[(1R,3S,4R)-2-oxa-5-azabicyclo[2.2.1]heptan-3-yl]phenyl]urea] | 7.72 | 5.88
c1ccc([C@@H]2O[C@H]3CN[C@@H]2C3)cc1 [Example 6, (1R,3S,4R)-3-Phenyl-2-oxa-5-azabicyclo[2.2.1]heptane] | 6.09 | 5.81
O=C(Nc1ccc([C@@H]2O[C@H]3CN[C@@H]2C3)cc1)c1ccc(Cl)cc1 [Example 7, 4-Chloro-N-[4-[(1R,3S,4R)-2-oxa-5-azabicyclo[2.2.1]heptan-3-yl]phenyl]benzamide] | 6.97 | 8.36
O=C(Nc1ccc([C@H]2O[C@@H]3CN[C@H]2C3)cc1)c1cccc(Cl)c1 [Example 8, 3-Chloro-N-[4-[(1S,3R,4S)-2-oxa-5-azabicyclo[2.2.1]heptan-3-yl]phenyl]benzamide] | 6.68 | 8.34
c1ccc([C@H]2O[C@@H]3CN[C@H]2C3)cc1 [Example 9, (1S,3R,4S)-3-Phenyl-2-oxa-5-azabicyclo[2.2.1]heptane] | 6.43 | 7.46
O=C(Nc1ccc([C@@H]2O[C@H]3CN[C@@H]2C3)cc1)c1cccc(Cl)c1 [Example 10, 3-Chloro-N-[4-[(1R,3S,4R)-2-oxa-5-azabicyclo[2.2.1]heptan-3-yl]phenyl]benzamide] | 7.26 | 8.38
FC(F)(F)c1ccc(Nc2ccc([C@@H]3O[C@H]4CN[C@@H]3C4)cc2)nc1 [Example 11, N-[4-[(1R,3S,4R)-2-Oxa-5-azabicyclo[2.2.1]heptan-3-yl]phenyl]-5-(trifluoromethyl)pyridin-2-amine] | 7.82 | 8.41
O=C(Nc1ccc([C@@H]2O[C@H]3CN[C@@H]2C3)cc1)c1ccc(OCC2CC2)cc1 [Example 12, 4-(Cyclopropylmethoxy)-N-[4-[(1R,3S,4R)-2-oxa-5-azabicyclo[2.2.1]heptan-3-yl]phenyl]benzamide] | 6.87 | 8.17
CCOc1ccc(C(=O)Nc2ccc([C@@H]3O[C@H]4CN[C@@H]3C4)cc2)cn1 [Example 13, 6-Ethoxy-N-[4-[(1R,3S,4R)-2-oxa-5-azabicyclo[2.2.1]heptan-3-yl]phenyl]pyridine-3-carboxamide] | 3.46 | 8.20
O=C(Nc1ccc([C@H]2O[C@@H]3CN[C@H]2C3)cc1)c1ccc(Cl)cc1 [Example 14, 4-Chloro-N-[4-[(1S,3R,4S)-2-oxa-5-azabicyclo[2.2.1]heptan-3-yl]phenyl]benzamide] | 6.72 | 8.30
CCOc1ccc(C(=O)Nc2ccc([C@H]3O[C@@H]4CN[C@H]3C4)cc2)cn1 [Example 15, 6-Ethoxy-N-[4-[(1S,3R,4S)-2-oxa-5-azabicyclo[2.2.1]heptan-3-yl]phenyl]pyridine-3-carboxamide] | 5.72 | 7.81
O=C(Nc1ccc([C@H]2O[C@@H]3CN[C@H]2C3)cc1)c1ccc(OCC(F)(F)F)nc1 [Example 16, N-[4-[(1S,3R,4S)-2-Oxa-5-azabicyclo[2.2.1]heptan-3-yl]phenyl]-6-(2,2,2-trifluoroethoxy)pyridine-3-carboxamide] | 6.85 | 7.93
CCOc1ccc(C(=O)Nc2ccc([C@H]3O[C@@H]4CN[C@H]3C4)cc2)cc1 [Example 17, 4-Ethoxy-N-[4-[(1S,3R,4S)-2-oxa-5-azabicyclo[2.2.1]heptan-3-yl]phenyl]benzamide] | 6.16 | 8.19
O=C(Nc1ccc([C@H]2O[C@@H]3CN[C@H]2C3)cc1)c1cnc(C2CC2)nc1 [Example 18, 2-Cyclopropyl-N-[4-[(1S,3R,4S)-2-oxa-5-azabicyclo[2.2.1]heptan-3-yl]phenyl]pyrimidine-5-carboxamide] | 5.69 | 7.42

Structure (SMILES) | pKi (rat TAAR1) | pKi (mouse TAAR1)
FC(F)(F)c1ccc(Nc2ccc([C@H]3O[C@@H]4CN[C@H]3C4)cc2)nc1 [Example 19, N-[4-[(1S,3R,4S)-2-Oxa-5-azabicyclo[2.2.1]heptan-3-yl]phenyl]-5-(trifluoromethyl)pyridin-2-amine] | 7.19 | 8.15
Clc1ccc(Nc2ccc([C@H]3O[C@@H]4CN[C@H]3C4)cc2)nc1 [Example 20, 5-Chloro-N-[4-[(1S,3R,4S)-2-oxa-5-azabicyclo[2.2.1]heptan-3-yl]phenyl]pyridin-2-amine] | 6.40 | 8.39
FC(F)(F)c1nccc(Nc2ccc([C@H]3O[C@@H]4CN[C@H]3C4)cc2)n1 [Example 21, N-[4-[(1S,3R,4S)-2-Oxa-5-azabicyclo[2.2.1]heptan-3-yl]phenyl]-2-(trifluoromethyl)pyrimidin-4-amine] | 6.20 | 7.71
FC(F)(F)c1cnc(Nc2ccc([C@H]3O[C@@H]4CN[C@H]3C4)cc2)cn1 [Example 22, N-[4-[(1S,3R,4S)-2-Oxa-5-azabicyclo[2.2.1]heptan-3-yl]phenyl]-5-(trifluoromethyl)pyrazin-2-amine] | 6.47 | 8.12
FC(F)(F)c1cnc(Nc2ccc([C@H]3O[C@@H]4CN[C@H]3C4)cc2)nc1 [Example 23, N-[4-[(1S,3R,4S)-2-Oxa-5-azabicyclo[2.2.1]heptan-3-yl]phenyl]-5-(trifluoromethyl)pyrimidin-2-amine] | 6.83 | 7.80
Clc1ccc(Nc2ccc([C@@H]3O[C@H]4CN[C@@H]3C4)cc2)nc1 [Example 24, 5-Chloro-N-[4-[(1R,3S,4R)-2-oxa-5-azabicyclo[2.2.1]heptan-3-yl]phenyl]pyridin-2-amine] | 7.50 | 8.48
O=C(Nc1ccc([C@H]2O[C@@H]3CN[C@H]2C3)cc1)c1ccnc(C(F)(F)F)c1 [Example 25, N-[4-[(1S,3R,4S)-2-Oxa-5-azabicyclo[2.2.1]heptan-3-yl]phenyl]-2-(trifluoromethyl)pyridine-4-carboxamide] | 6.49 | 7.65
O=C(Nc1ccc([C@@H]2O[C@H]3CN[C@@H]2C3)cc1)c1ccnc(C(F)(F)F)c1 [Example 26, N-[4-[(1R,3S,4R)-2-Oxa-5-azabicyclo[2.2.1]heptan-3-yl]phenyl]-2-(trifluoromethyl)pyridine-4-carboxamide] | 6.86 | 7.65
O=C(Nc1ccc([C@@H]2O[C@H]3CN[C@@H]2C3)cc1)c1ccc(OCC(F)(F)F)nc1 [Example 27, N-[4-[(1R,3S,4R)-2-Oxa-5-azabicyclo[2.2.1]heptan-3-yl]phenyl]-6-(2,2,2-trifluoroethoxy)pyridine-3-carboxamide] | 7.38 | 8.01
CCOc1ccc(C(=O)Nc2ccc([C@@H]3O[C@H]4CN[C@@H]3C4)cc2)cc1 [Example 28, 4-Ethoxy-N-[4-[(1R,3S,4R)-2-oxa-5-azabicyclo[2.2.1]heptan-3-yl]phenyl]benzamide] | 6.75 | 8.37
O=C(Nc1ccc([C@@H]2O[C@H]3CN[C@@H]2C3)cc1)c1cnc(C2CC2)nc1 [Example 29, 2-Cyclopropyl-N-[4-[(1R,3S,4R)-2-oxa-5-azabicyclo[2.2.1]heptan-3-yl]phenyl]pyrimidine-5-carboxamide] | 7.36 | 7.50
FC(F)(F)c1cnc(Nc2ccc([C@@H]3O[C@H]4CN[C@@H]3C4)cc2)cn1 [Example 30, N-[4-[(1R,3S,4R)-2-Oxa-5-azabicyclo[2.2.1]heptan-3-yl]phenyl]-5-(trifluoromethyl)pyrazin-2-amine] | 6.56 | 7.54
FC(F)(F)c1cnc(Nc2ccc([C@@H]3O[C@H]4CN[C@@H]3C4)cc2)nc1 [Example 31, N-[4-[(1R,3S,4R)-2-Oxa-5-azabicyclo[2.2.1]heptan-3-yl]phenyl]-5-(trifluoromethyl)pyrimidin-2-amine] | 7.11 | 7.66
O=C(Nc1ccc([C@H]2O[C@@H]3CN[C@H]2C3)cc1)c1ccc(OCC2CC2)cc1 [Example 32, 4-(Cyclopropylmethoxy)-N-[4-[(1S,3R,4S)-2-oxa-5-azabicyclo[2.2.1]heptan-3-yl]phenyl]benzamide] | 6.78 | 8.20
O=C(Nc1ccc(Cl)cc1)Nc1ccc([C@H]2O[C@@H]3CN[C@H]2C3)cc1 [Example 33, 1-(4-Chlorophenyl)-3-[4-[(1S,3R,4S)-2-oxa-5-azabicyclo[2.2.1]heptan-3-yl]phenyl]urea] | 7.94 | 8.46
CCc1ncc(C(=O)Nc2ccc([C@H]3O[C@@H]4CN[C@H]3C4)cc2)cn1 [Example 34, 2-Ethyl-N-[4-[(1S,3R,4S)-2-oxa-5-azabicyclo[2.2.1]heptan-3-yl]phenyl]pyrimidine-5-carboxamide] | 6.34 | 7.25
FC(F)(F)c1cc(Nc2ccc([C@H]3O[C@@H]4CN[C@H]3C4)cc2)ccn1 [Example 35, N-[4-[(1S,3R,4S)-2-Oxa-5-azabicyclo[2.2.1]heptan-3-yl]phenyl]-2-(trifluoromethyl)pyridin-4-amine] | 6.09 | 7.96
